Measurements from US8802597B2, “Herbicidal pyrimidines” (E I du Pont de Nemours and Company, priority 2003, dated 2014).

How the values were obtained:
Format in all cases: in vivo
[1] = tested on: rice flatsedge (Cyperus iria); assay: Test E flooded paddy water application; details: Flood, 21 days, scale 0 to 100 (0 no effect, 100 complete control); for Plant response rating, Flatsedge, Rice: 16 g ai/ha
Excerpt: (§1) Three plastic pots (ca. 16-cm diameter) per rate were partially filled with sterilized Tama silt loam soil comprising a 35:50:15 ratio of sand, silt and clay and 2.6% organic matter. Separate plantings for each of the three pots were as follows. Seeds from the U.S. of ducksalad (Heteranthera limosa), smallflower umbrella sedge (Cyperus difformis) and purple redstem (Ammannia coccinea), were planted into one 16-cm pot for each rate. Seeds from the U.S. of rice flatsedge (Cyperus iria), bearded (brdd.) sprangletop (Leptochloa fusca ssp. fascicularis), one stand of 9 or 10 water seeded rice seedlings (Oryza sativa cv. ‘Japonica-M202’), and one stand of 6 transplanted rice seedlings (Oryza sativa cv. ‘Japonica-M202’) were planted into one 16-cm pot for each rate. Seeds from the U.S. of barnyardgrass (Echinochloa crus-galli), late watergrass (Echinochloa oryzicola), early watergrass (Echinochloa oryzoides) and junglerice (Echinochloa colona) were planted into one 16-cm pot for each rate. Plantings were sequential so that crop and weed species were at the 2.0 to 2.5-leaf stage at time of treatment.
(§2) Potted plants were grown in a greenhouse with day/night temperature settings of 29.5/26.7° C., and supplemental balanced lighting was provided to maintain a 16-hour photoperiod. Test pots were maintained in the greenhouse until test completion.
(§3) At time of treatment, test pots were flooded to 3 cm above the soil surface, treated by application of test compounds directly to the paddy water, and then maintained at that water depth for the duration of the test. Effects of treatments on rice and weeds were visually evaluated by comparison to untreated controls after 21 days. Plant response ratings, summarized in Table E, are based on a scale of 0 to 100 where 0 is no effect and 100 is complete control. A dash (-) response means no test result.

[2] = tested on: junglerice (Echinochloa colona); assay: Test E flooded paddy water application; details: Flood, 21 days, scale 0 to 100 (0 no effect, 100 complete control); for Plant response rating, Junglerice: 16 g ai/ha
Excerpt: as §1, §2, §3

[3] = tested on: late watergrass (Echinochloa oryzicola); assay: Test E flooded paddy water application; details: Flood, 21 days, scale 0 to 100 (0 no effect, 100 complete control); for Plant response rating, Watergrass, Late: 16 g ai/ha
Excerpt: as §1, §2, §3

[4] = tested on: transplanted rice seedlings (Oryza sativa cv. ‘Japonica-M202’); assay: Test E flooded paddy water application; details: Flood, 21 days, scale 0 to 100 (0 no effect, 100 complete control); for Plant response rating, Rice, Transplanted: 16 g ai/ha
Excerpt: as §1, §2, §3

[5] = tested on: purple redstem (Ammannia coccinea); assay: Test E flooded paddy water application; details: Flood, 21 days, scale 0 to 100 (0 no effect, 100 complete control); for Plant response rating, Redstem: 16 g ai/ha
Excerpt: as §1, §2, §3

[6] = tested on: water seeded rice seedlings (Oryza sativa cv. ‘Japonica-M202’); assay: Test E flooded paddy water application; details: Flood, 21 days, scale 0 to 100 (0 no effect, 100 complete control); for Plant response rating, Rice, Water Seeded: 16 g ai/ha
Excerpt: as §1, §2, §3

[7] = tested on: ducksalad (Heteranthera limosa); assay: Test E flooded paddy water application; details: Flood, 21 days, scale 0 to 100 (0 no effect, 100 complete control); for Plant response rating, Ducksalad: 16 g ai/ha
Excerpt: as §1, §2, §3

[8] = tested on: bearded (brdd.) sprangletop (Leptochloa fusca ssp. fascicularis); assay: Test E flooded paddy water application; details: Flood, 21 days, scale 0 to 100 (0 no effect, 100 complete control); for Plant response rating, Sprangletop, Brdd.: 16 g ai/ha
Excerpt: as §1, §2, §3

[9] = tested on: early watergrass (Echinochloa oryzoides); assay: Test E flooded paddy water application; details: Flood, 21 days, scale 0 to 100 (0 no effect, 100 complete control); for Plant response rating, Watergrass, Early: 16 g ai/ha
Excerpt: as §1, §2, §3

[10] = tested on: smallflower umbrella sedge (Cyperus difformis); assay: Test E flooded paddy water application; details: Flood, 21 days, scale 0 to 100 (0 no effect, 100 complete control)
Excerpt: as §1, §2, §3

[11] = tested on: barnyardgrass (Echinochloa crus-galli); assay: Test A pre/postemergence
Method in brief: (§4)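 Greenhouse herbicide test with preemergence directed soil spray and postemergence foliar spray at the 1- to 2-leaf stage; visual control rating 0–100 versus untreated at ~10 days.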

[12] = tested on: redroot pigweed (Amaranthus retroflexus); assay: Test A pre/postemergence
Method in brief: as §4

[13] = tested on: crabgrass (Digitaria sanguinalis); assay: Test A pre/postemergence
Method in brief: as §4

[14] = tested on: morningglory (Ipomoea spp.); assay: Test A pre/postemergence
Method in brief: as §4

[15] = tested on: velvetleaf (Abutilon theophrasti); assay: Test A pre/postemergence
Method in brief: as §4

[16] = tested on: giant foxtail (Setaria faberi); assay: Test A pre/postemergence
Method in brief: as §4

[17] = tested on: barnyardgrass (Echinochloa crus-galli); assay: Test E flooded paddy water application; details: Flood, 21 days, scale 0 to 100 (0 no effect, 100 complete control)
Excerpt: as §1, §2, §3

[18] = Postemergence, 125 g ai/ha, 0 to 100 scale (0 no effect, 100 complete control)
[19] = Postemergence, 500 g ai/ha, 0 to 100 scale (0 no effect, 100 complete control)
[20] = Preemergence, 125 g ai/ha, 0 to 100 scale where 0 is no effect and 100 is complete control, approximately ten days
[21] = Preemergence, 500 g ai/ha, 0 to 100 scale where 0 is no effect and 100 is complete control, approximately ten days

CCOC(=O)c1nc(-c2ccc(F)cc2)nc(N)c1Br [Compound 63]
Flatsedge, Rice plant response rating ([1]; 32 g ai/ha): 75
Flatsedge, Rice plant response rating ([1]; 64 g ai/ha): 75
Flatsedge, Rice plant response rating ([1]; 125 g ai/ha): 85
Flatsedge, Rice plant response rating ([1]; 250 g ai/ha): 85
Plant response rating, Flatsedge, Rice [1]: 60
Junglerice plant response rating ([2]; 32 g ai/ha): 0
Junglerice plant response rating ([2]; 64 g ai/ha): 0
Junglerice plant response rating ([2]; 125 g ai/ha): 0
Junglerice plant response rating ([2]; 250 g ai/ha): 30
Plant response rating, Junglerice [2]: 0
Watergrass, Late plant response rating ([3]; 32 g ai/ha): 0
Watergrass, Late plant response rating ([3]; 64 g ai/ha): 0
Watergrass, Late plant response rating ([3]; 125 g ai/ha): 0
Watergrass, Late plant response rating ([3]; 250 g ai/ha): 0
Plant response rating, Watergrass, Late [3]: 0
Rice, Transplanted plant response rating ([4]; 32 g ai/ha): 0
Rice, Transplanted plant response rating ([4]; 64 g ai/ha): 0
Rice, Transplanted plant response rating ([4]; 125 g ai/ha): 0
Rice, Transplanted plant response rating ([4]; 250 g ai/ha): 0
Plant response rating, Rice, Transplanted [4]: 0
Redstem plant response rating ([5]; 32 g ai/ha): 65
Redstem plant response rating ([5]; 64 g ai/ha): 65
Redstem plant response rating ([5]; 125 g ai/ha): 75
Redstem plant response rating ([5]; 250 g ai/ha): 75
Plant response rating, Redstem [5]: 65
Rice, Water Seeded plant response rating ([6]; 32 g ai/ha): 0
Rice, Water Seeded plant response rating ([6]; 64 g ai/ha): 0
Rice, Water Seeded plant response rating ([6]; 125 g ai/ha): 20
Rice, Water Seeded plant response rating ([6]; 250 g ai/ha): 30
Plant response rating, Rice, Water Seeded [6]: 0
Ducksalad plant response rating ([7]; 32 g ai/ha): 30
Ducksalad plant response rating ([7]; 64 g ai/ha): 65
Ducksalad plant response rating ([7]; 125 g ai/ha): 100
Ducksalad plant response rating ([7]; 250 g ai/ha): 100
Plant response rating, Ducksalad [7]: 30
Sprangletop, Brdd. plant response rating ([8]; 32 g ai/ha): 0
Sprangletop, Brdd. plant response rating ([8]; 64 g ai/ha): 40
Sprangletop, Brdd. plant response rating ([8]; 125 g ai/ha): 40
Sprangletop, Brdd. plant response rating ([8]; 250 g ai/ha): 65
Plant response rating, Sprangletop, Brdd. [8]: 0
Watergrass, Early plant response rating ([9]; 32 g ai/ha): 0
Watergrass, Early plant response rating ([9]; 64 g ai/ha): 0
Watergrass, Early plant response rating ([9]; 125 g ai/ha): 0
Watergrass, Early plant response rating ([9]; 250 g ai/ha): 0
Plant response rating, Watergrass, Early [9]: 0
Sedge, Umbrella plant response rating ([10]; 32 g ai/ha): 75
Sedge, Umbrella plant response rating ([10]; 64 g ai/ha): 75
Sedge, Umbrella plant response rating ([10]; 125 g ai/ha): 75
Sedge, Umbrella plant response rating ([10]; 250 g ai/ha): 80
Plant response rating, Sedge, Umbrella ([10]; 16 g ai/ha): 70
Plant response rating, Barnyardgrass [11, 18]: 0
Plant response rating, Barnyardgrass [11, 19]: 0
Plant response rating, Barnyardgrass [11, 20]: 0
Plant response rating, Barnyardgrass [11, 21]: 40
Plant response rating, Pigweed [12, 18]: 40
Plant response rating, Pigweed [12, 19]: 65
Plant response rating, Pigweed [12, 20]: 0
Plant response rating, Pigweed [12, 21]: 80
Plant response rating, Crabgrass [13, 18]: 0
Plant response rating, Crabgrass [13, 19]: 0
Plant response rating, Crabgrass [13, 20]: 0
Plant response rating, Crabgrass [13, 21]: 75
Plant response rating, Morningglory [14, 18]: 20
Plant response rating, Morningglory [14, 19]: 25
Plant response rating, Morningglory [14, 20]: 0
Plant response rating, Morningglory [14, 21]: 0
Plant response rating, Velvetleaf [15, 18]: 55
Plant response rating, Velvetleaf [15, 19]: 70
Plant response rating, Velvetleaf [15, 20]: 0
Plant response rating, Velvetleaf [15, 21]: 15
Plant response rating, Foxtail, Giant [16, 18]: 0
Plant response rating, Foxtail, Giant [16, 19]: 0
Plant response rating, Foxtail, Giant [16, 20]: 0
Plant response rating, Foxtail, Giant [16, 21]: 35

CCOC(=O)c1nc(-c2ccc(CC)cc2)nc(N)c1Cl [Compound 99]
Flatsedge, Rice plant response rating ([1]; 64 g ai/ha): 100
Flatsedge, Rice plant response rating ([1]; 125 g ai/ha): 100
Flatsedge, Rice plant response rating ([1]; 250 g ai/ha): 100
Plant response rating, Flatsedge, Rice [1]: 100
Junglerice plant response rating ([2]; 32 g ai/ha): 0
Junglerice plant response rating ([2]; 64 g ai/ha): 0
Junglerice plant response rating ([2]; 125 g ai/ha): 0
Junglerice plant response rating ([2]; 250 g ai/ha): 0
Plant response rating, Junglerice [2]: 0
Watergrass, Late plant response rating ([3]; 32 g ai/ha): 0
Watergrass, Late plant response rating ([3]; 64 g ai/ha): 0
Watergrass, Late plant response rating ([3]; 125 g ai/ha): 0
Watergrass, Late plant response rating ([3]; 250 g ai/ha): 0
Plant response rating, Watergrass, Late [3]: 0
Barnyardgrass plant response rating ([17]; 32 g ai/ha): 0
Barnyardgrass plant response rating ([17]; 64 g ai/ha): 0
Barnyardgrass plant response rating ([17]; 125 g ai/ha): 0
Barnyardgrass plant response rating ([17]; 250 g ai/ha): 0
Plant response rating, Barnyardgrass ([17]; 16 g ai/ha): 0
Rice, Transplanted plant response rating ([4]; 32 g ai/ha): 0
Rice, Transplanted plant response rating ([4]; 64 g ai/ha): 0
Rice, Transplanted plant response rating ([4]; 125 g ai/ha): 0
Rice, Transplanted plant response rating ([4]; 250 g ai/ha): 20
Plant response rating, Rice, Transplanted [4]: 0
Redstem plant response rating ([5]; 32 g ai/ha): 0
Redstem plant response rating ([5]; 125 g ai/ha): 0
Redstem plant response rating ([5]; 250 g ai/ha): 45
Plant response rating, Redstem [5]: 0
Rice, Water Seeded plant response rating ([6]; 32 g ai/ha): 0
Rice, Water Seeded plant response rating ([6]; 64 g ai/ha): 0
Rice, Water Seeded plant response rating ([6]; 125 g ai/ha): 20
Rice, Water Seeded plant response rating ([6]; 250 g ai/ha): 20
Plant response rating, Rice, Water Seeded [6]: 0
Ducksalad plant response rating ([7]; 32 g ai/ha): 100
Ducksalad plant response rating ([7]; 64 g ai/ha): 100
Ducksalad plant response rating ([7]; 125 g ai/ha): 100
Ducksalad plant response rating ([7]; 250 g ai/ha): 100
Plant response rating, Ducksalad [7]: 95
Sprangletop, Brdd. plant response rating ([8]; 32 g ai/ha): 0
Sprangletop, Brdd. plant response rating ([8]; 64 g ai/ha): 0
Sprangletop, Brdd. plant response rating ([8]; 125 g ai/ha): 0
Sprangletop, Brdd. plant response rating ([8]; 250 g ai/ha): 0
Plant response rating, Sprangletop, Brdd. [8]: 0
Watergrass, Early plant response rating ([9]; 32 g ai/ha): 0
Watergrass, Early plant response rating ([9]; 64 g ai/ha): 0
Watergrass, Early plant response rating ([9]; 125 g ai/ha): 0
Watergrass, Early plant response rating ([9]; 250 g ai/ha): 0
Plant response rating, Watergrass, Early [9]: 0
Plant response rating, Barnyardgrass [11, 18]: 0
Plant response rating, Barnyardgrass [11, 19]: 0
Plant response rating, Barnyardgrass [11, 20]: 0
Plant response rating, Barnyardgrass [11, 21]: 0
Plant response rating, Pigweed [12, 18]: 5
Plant response rating, Pigweed [12, 19]: 10
Plant response rating, Pigweed [12, 20]: 0
Plant response rating, Pigweed [12, 21]: 0
Plant response rating, Crabgrass [13, 18]: 0
Plant response rating, Crabgrass [13, 19]: 0
Plant response rating, Crabgrass [13, 20]: 0
Plant response rating, Crabgrass [13, 21]: 0
Plant response rating, Morningglory [14, 18]: 0
Plant response rating, Morningglory [14, 19]: 0
Plant response rating, Morningglory [14, 20]: 0
Plant response rating, Morningglory [14, 21]: 0
Plant response rating, Velvetleaf [15, 18]: 0
Plant response rating, Velvetleaf [15, 19]: 35
Plant response rating, Velvetleaf [15, 20]: 0
Plant response rating, Velvetleaf [15, 21]: 0
Plant response rating, Foxtail, Giant [16, 18]: 0
Plant response rating, Foxtail, Giant [16, 19]: 0
Plant response rating, Foxtail, Giant [16, 20]: 0
Plant response rating, Foxtail, Giant [16, 21]: 0
